A short description of the data set: Miniaturized rotating disk dissolution and solubility of pressed pellet, biexponential fit. Format: physicochemical. As to conditions: pressed pellet 3.9 mm, five replicate profiles, 180 selected points, FIG. 12. The method, then:
This example is based on the dissolution and solubility characteristics of the model drug carbamazepine, with data collected on a prototype instrument, utilizing a miniaturized rotating disk of pressed compound held as a pellet in a small stainless steel die. The average diameter of the pellets of material was measured to be 3.9 mm, corresponding to a nominal area of 0.12 cm^2, and the minimal amount of compound needed to make such pellets was about 5 mg, although more may be used. In this example, the solution volume was 15 mL, larger than the preferred volume of 3 mL. Over 1100 concentration measurements were acquired, in five replicate dissolution profiles. […] The powder “burst” would be associated with a high surface area, but would be limited to a small quantity of material: [formula] […] 2 with respect to time, evaluated at t=to, in the units of μg/min (with PABL in cm/s units), is DR^max=(Cpowder·Apowder+[…]·60 [3] The factor of 60 accounts for the conversion of ABL permeability into cm/min units. Intrinsic dissolution rate (IDR) is calculated as IDR=DR^max/Aeff, where Aeff is the effective area of the solid phase in contact with bulk solution. The effective surface area is defined as Aeff=δApowder+(1-δ)[…], where δ=[…]). The IDR is the maximum flux of material entering the solution phase through the interface solid-liquid interface (often evaluated at time near zero). […]

≈ marks a conversion by molar mass, not a printed value.

The term solubility denotes the concentration that dissolves in the medium under given conditions.

Consider `NC(=O)N1c2ccccc2C=Cc2ccccc21` [carbamazepine], for which the “IDR (intrinsic dissolution rate)” value (nominal area 0.12 cm^2, 15 mL) amounted to 25±1 μg/cm^2·min. In addition, the solubility (thermodynamic from solid, 15 mL, read-out: S (solubility)) turned out to be 225 ± 6 µg/mL (≈ 952 µM).

The values above are taken from patent publication US8119998B2, “Methods and systems for in situ physicochemical property testing” (Pion, Inc., priority 2008, dated 2012).
